The text below walks through data of BindingDB's records for doi:10.1021/acs.jmedchem.9b00359 (Shandong University, 2019).

Each structure is given as a SMILES string.

As usually defined, the EC50 is the concentration that produces a half-maximal response.

The nature of the assay: Inhibition of HIV1 reverse transcriptase p66/p51 K103N/Y181C mutant infected in human MT2 cells assessed as reduction in viral infection incubated for 5 days.
Turning to `Cc1c(Oc2ccccc2OCCn2ccc(=O)[nH]c2=O)cc(N(C)C(=O)CF)c2ccc(C#N)cc12`, the EC50 was 15 µM.

Turning to `C=CC(=O)N(C)c1cc(Oc2ccccc2OCCn2ccc(=O)[nH]c2=O)c(C)c2cc(C#N)ccc12`, the 50% effective concentration (EC50) turned out to be 0.5 µM.

With `C=CC(=O)Nc1cc(Oc2ccccc2OCCn2ccc(=O)[nH]c2=O)c(C)c2cc(C#N)ccc12`, the 50% effective concentration (EC50) was greater than 12 µM.
